The values below come from patent US8987249B2, “Substituted 2-Aza-bicyclo[2.2.1]heptane-3-carboxylic acid (benzyl-cyano-methyl)-amides inhibitors of Cathepsin C” (Boehringer Ingelheim International GmbH, priority 2013, dated 2015).

One may read the IC50 as the concentration at which inhibition is half-maximal. The term half-life denotes the time in which the quantity being followed falls by half. High values mean slow decline, low ones rapid decline.

Structures are written as SMILES.

Data set [1] addresses recombinant human DPPI (Cathepsin C) (Homo sapiens (Human), UniProt P53634). Put plainly: Inhibition of human DPPI (Cathepsin C). Format: biochemical. The settings on record: substrate Gly-Arg-AMC. The procedure, abridged: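 Fluorescence read after 30 min room-temperature turnover of 50 μM (final) substrate by recombinant human cathepsin C, pH 6.0 MES/NaCl/DTT/BSA buffer, quenched by Gly-Phe-DMK (1 μM final). Activity as percent of vehicle after background subtraction, used for IC50.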

Data set [2] concerns the target recombinant human Cathepsin K (Homo sapiens (Human), UniProt P43235). Put plainly: Inhibition of human Cathepsin K. The format is biochemical. The conditions noted are these: substrate Z-Gly-Pro-Arg-AMC. The procedure, abridged:
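Fluorogenic Z-Gly-Pro-Arg-AMC cleavage, 60 min at room temperature, after a 10 min enzyme–compound preincubation (enzyme 2 ng/μL; compound 0.1 nM–100 μM; 1% DMSO). Buffer pH 5.5 with sodium acetate, EDTA and L-cysteine; procathepsin first activated 30 min at pH 3.5. E64 (1 μM) stop; IC50 derived from percent of vehicle signal minus background (Ex 360/Em 460 nm).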

Another data set is described as follows: in vitro. The conditions noted are these: human, microsomes, pH 7.6.
Data set [3] in a line: Determination of metabolic stability with human liver microsomes. The conditions noted are these: human, pooled human liver microsomes, pH 7.6. On the technique in general: Microsomes from liver hold many membrane-bound enzymes, among them those of drug oxidation.
Method: (§1) Determination of Metabolic Stability with Human Liver Microsomes
(§2) The metabolic degradation of the test compound is assayed at 37° C. with pooled human liver microsomes. The final incubation volume of 100 μl per time point contains TRIS buffer pH 7.6 (0.1 M), magnesium chloride (5 mM), microsomal protein (1 mg/ml) and the test compound at a final concentration of 1 μM. Following a short preincubation period at 37° C., the reactions are initiated by addition of beta-nicotinamide adenine dinucleotide phosphate, reduced form (NADPH, 1 mM) and terminated by transferring an aliquot into acetonitrile after different time points. Additionally, the NADPH-independent degradation is monitored in incubations without NADPH, terminated at the last time point. The [%] remaining test compound after NADPH independent incubation is reflected by the parameter c (control) (metabolic stability). The quenched incubations are pelleted by centrifugation (10,000 g, 5 min). An aliquot of the supernatant is assayed by LC-MS/MS for the amount of parent compound.
(§3) The half-life (t½ INVITRO) is determined by the slope of the semilogarithmic plot of the concentration-time profile.

recombinant human Cathepsin K, sequence (P43235 115-329): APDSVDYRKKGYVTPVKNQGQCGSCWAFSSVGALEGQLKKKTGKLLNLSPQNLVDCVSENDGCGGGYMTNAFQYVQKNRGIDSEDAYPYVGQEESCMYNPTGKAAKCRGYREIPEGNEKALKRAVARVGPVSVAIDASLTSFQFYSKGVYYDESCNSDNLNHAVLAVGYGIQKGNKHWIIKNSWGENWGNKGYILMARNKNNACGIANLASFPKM
recombinant human DPPI (Cathepsin C), sequence (P53634 231-394): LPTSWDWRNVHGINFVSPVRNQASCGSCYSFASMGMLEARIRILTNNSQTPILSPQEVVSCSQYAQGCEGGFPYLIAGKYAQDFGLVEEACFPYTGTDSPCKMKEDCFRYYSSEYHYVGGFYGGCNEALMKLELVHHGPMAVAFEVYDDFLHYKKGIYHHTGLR
recombinant human DPPI (Cathepsin C), sequence (P53634 395-463): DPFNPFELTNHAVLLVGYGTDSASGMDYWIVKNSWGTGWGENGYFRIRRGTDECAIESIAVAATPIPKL
recombinant human DPPI (Cathepsin C), sequence (P53634 25-134): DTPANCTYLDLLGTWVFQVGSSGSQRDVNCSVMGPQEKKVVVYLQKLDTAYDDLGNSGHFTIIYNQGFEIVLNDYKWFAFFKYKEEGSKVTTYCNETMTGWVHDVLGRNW
Method for in vitro: as §1, §2, §3

As to `N#C[C@H](Cc1ccc(C2=CC3COCCN3CC2)cc1F)NC(=O)[C@H]1N[C@@H]2CC[C@H]1C2` (stereo partly drawn) [Example 282], the half-maximal inhibitory concentration (IC50) is 3.7 nM in data set [1] and 1800 nM in data set [2]. Further, in “in vitro”, the half-life at 1 μM is over 2.17 h.
Consider `CN1CC2CCC(C1)N2c1ccc(C[C@@H](C#N)NC(=O)[C@H]2N[C@@H]3CC[C@H]2C3)c(F)c1` [Example 328], for which the IC50 in data set [1] was determined as 4.2 nM; in data set [2], 7700 nM. In addition, in the data set “in vitro”, the half-life at 1 μM is over 2.17 h.
On to `CN1CC=C(c2ccc(C[C@@H](C#N)NC(=O)[C@H]3N[C@@H]4CC[C@H]3C4)c(F)c2)CC1` [Example 223], for which the half-life at 1 μM in the data set “in vitro” was over 2.17 h.
Regarding `N#C[C@H](Cc1ccc(C2=CCN(C3CCOC3)CC2)cc1F)NC(=O)[C@H]1N[C@@H]2CC[C@H]1C2` (stereo partly drawn) [Example 332], the figures for the IC50 in data set [1] and in data set [2] were 12.9 nM and 6200 nM, respectively. The half-life at 1 μM in “in vitro” turned out to be 1.67 h.
With `N#C[C@H](Cc1ccc(N2CCNCC2)cc1F)NC(=O)[C@H]1N[C@@H]2CC[C@H]1C2` [Example 204], the IC50 in data set [1] was 24.5 nM. The compound further yielded a half-life at 1 μM in “in vitro” of over 2.17 h.
Regarding `CN(C)CCN1C(=O)Cc2ccc(-c3ccc(C[C@@H](C#N)NC(=O)[C@H]4N[C@@H]5CC[C@H]4C5)c(F)c3)cc21` [Example 278], the IC50 in data set [1] is 1 nM; in data set [2], 1200 nM. The half-life at 1 μM in “in vitro” is over 2.17 h.
Compound `CN1CCC(C)(c2ccc(C[C@@H](C#N)NC(=O)[C@H]3N[C@@H]4CC[C@H]3C4)c(F)c2)CC1` [Example 321] gave a half-life at 1 μM in the data set “in vitro” of over 2.17 h.
With `CS(=O)(=NC#N)c1ccc(-c2ccc(C[C@@H](C#N)NC(=O)[C@H]3N[C@@H]4CC[C@H]3C4)c(F)c2)cc1` (stereo partly drawn) [Example 263], the half-life at 1 μM in data set [3] was over 2.17 h. Further, the figures for the IC50 in data set [1] and in data set [2] were 11.8 nM and 2100 nM, respectively.
For `N#CC(Cc1ccc(-c2ccc(C(N)=O)cc2)cc1F)NC(=O)[C@H]1N[C@@H]2CC[C@H]1C2` (stereo partly drawn) [Example 83], in that order: over 2.17 h, 13.3 nM and 5100 nM.
In data set [3], `CCC(O)Cc1cn(-c2ccc(C[C@@H](C#N)NC(=O)[C@H]3N[C@@H]4CC[C@H]3C4)c(F)c2)nn1` (stereo partly drawn) [Example 89] had a half-life at 1 μM of over 2.17 h. Besides, the IC50 came out at 15.6 nM in data set [1] and 5400 nM in data set [2].
`N#C[C@H](Cc1ccc(-c2cnn(CC3CCOCC3)c2)c(F)c1F)NC(=O)[C@H]1N[C@@H]2CC[C@H]1C2` [Example 218] yielded a half-life at 1 μM in data set [3] of over 2.17 h. The IC50 in data set [1] came to 18.9 nM; in data set [2] it was 26000 nM.
For `CN1CCN(c2ccc(C[C@@H](C#N)NC(=O)[C@H]3N[C@@H]4CC[C@H]3C4)c(F)c2)CC1` [Example 6, (1S,2S,4R)—N-[(1S)-1-cyano-2-[2-fluoro-4-(4-methylpiperazin-1-yl)phenyl]ethyl]-3-azabicyclo[2.2.1]heptane-2-carboxamide], in that order: over 2.17 h, 10.7 nM and 2500 nM.
For `N#C[C@H](Cc1ccc(N2CCN3CCOC[C@H]3C2)cc1F)NC(=O)[C@H]1N[C@@H]2CC[C@H]1C2` [Example 250], in that order: over 2.17 h, 4.2 nM and 3100 nM.
`C[S+]([O-])c1ccc(-c2ccc(C[C@@H](C#N)NC(=O)[C@H]3N[C@@H]4CC[C@H]3C4)c(F)c2)cc1` (stereo partly drawn) [Example 274] returned a half-life at 1 μM in data set [3] of over 2.08 h. The IC50 in data set [1] is 6.5 nM; in data set [2] it was 3500 nM.
`CCN1CC=C(c2ccc(C[C@@H](C#N)NC(=O)[C@H]3N[C@@H]4CC[C@H]3C4)c(F)c2)CC1` [Example 320]: in data set [1], the concentration for half-maximal inhibition (IC50) came out at 9.6 nM. For the same compound, the half-life at 1 μM in the data set “in vitro” was over 2.17 h.
With `CS(=O)(=O)N1CCN(c2ccc(C[C@@H](C#N)NC(=O)[C@H]3N[C@@H]4CC[C@H]3C4)c(F)c2)CC1` [Example 91], the half-life at 1 μM in data set [3] is over 2.17 h. In addition, the IC50 in data set [1] amounted to 17 nM; in data set [2], 2500 nM.
As to `CN1C2CCC1CN(c1ccc(C[C@@H](C#N)NC(=O)[C@H]3N[C@@H]4CC[C@H]3C4)c(F)c1)C2` [Example 333], the IC50 came to 15.3 nM in data set [1] and 2400 nM in data set [2]. Further, the half-life at 1 μM in the data set “in vitro” is over 2.17 h.
`CC(=O)N1CCN(C(=O)c2cc(-c3ccc(C[C@@H](C#N)NC(=O)[C@H]4N[C@@H]5CC[C@H]4C5)c(F)c3)cs2)CC1` [Example 231] gave a half-life at 1 μM in data set [3] of over 2.17 h. The half-inhibitory concentration (IC50) worked out at 2.2 nM in data set [1] and 2400 nM in data set [2].
